Assay results reported in ChEMBL document CHEMBL5576127, “New CDDO Arylboronate Ester Derivatives with High Selectivity and Low Toxicity” (J Med Chem, 2024).
Active and inactive are the calls of the source. The calls are words filed in the database; no cut-off is given here.

Assays:
[1] = test system: BGC-823; assay: Induction of apoptosis in human BGC-823 cells assessed as necrotic cells at 1 uM incubated for 48 hrs by Annexin V-FITC/PI staining based flow cytometric analysis ( Rvb = 1.79 %); type: functional
[2] = test system: BGC-823; assay: Induction of apoptosis in human BGC-823 cells assessed as necrotic cells at 0.5 uM incubated for 48 hrs by Annexin V-FITC/PI staining based flow cytometric analysis ( Rvb = 1.79 %); type: functional
[3] = test system: Cell membrane; assay: Induction of mitochondrial membrane potential loss in human BGC-823 cells assessed as increase in number of cells with J-monomers by measuring green fluorescence at 1 uM incubated for 24 hrs in presence of NAC by JC-1 staining based flow cytometric analysis (reference value: 0.33%); type: cell membranes
[4] = Half-life in rat at 10 mg/kg, iv measured after 24 hrs by LC-MS/MS analysis; type: ADME, organism-based; settings: in vivo
[5] = test system: Cell membrane; assay: Induction of mitochondrial membrane potential loss in human BGC-823 cells assessed as decrease in number of cells with J-aggregates by measuring red fluorescence at 0.5 uM incubated for 24 hrs by JC-1 staining based flow cytometric analysis (reference value: 99.7 %); type: cell membranes; design: scale not given: the % may be the effect or the level left
[6] = test system: BGC-823; assay: Induction of apoptosis in human BGC-823 cells assessed as viable cells at 0.25 uM incubated for 48 hrs by Annexin V-FITC/PI staining based flow cytometric analysis ( Rvb = 90.09 %); type: functional; settings: read-out: Activity
[7] = test system: Cell membrane; assay: Induction of mitochondrial membrane potential loss in human BGC-823 cells assessed as decrease in number of cells with J-aggregates by measuring red fluorescence at 1 uM incubated for 24 hrs by JC-1 staining based flow cytometric analysis (reference value: 99.7 %); type: cell membranes; design: scale not given: the % may be the effect or the level left
[8] = test system: BGC-823; assay: Induction of ROS generation in human BGC-823 cells assessed as cells with green fluorescence at 0.25 uM incubated for 24 hrs in presence of NAC by DCFH-DA staining based analysis relative to control; type: functional
[9] = test system: BGC-823; assay: Induction of apoptosis in human BGC-823 cells assessed as early apoptotic cells at 0.5 uM incubated for 48 hrs by Annexin V-FITC/PI staining based flow cytometric analysis ( Rvb = 1.68 %); type: functional
[10] = test system: Cell membrane; assay: Induction of mitochondrial membrane potential loss in human BGC-823 cells assessed as increase in number of cells with J-monomers by measuring green fluorescence at 0.5 uM incubated for 24 hrs by JC-1 staining based flow cytometric analysis (reference value: 0.33%); type: cell membranes
[11] = test system: BGC-823; assay: Induction of apoptosis in human BGC-823 cells assessed as early apoptotic cells at 0.25 uM incubated for 48 hrs by Annexin V-FITC/PI staining based flow cytometric analysis ( Rvb = 1.68 %); type: functional
[12] = test system: BGC-823; assay: Induction of apoptosis in human BGC-823 cells assessed as viable cells at 0.5 uM incubated for 48 hrs by Annexin V-FITC/PI staining based flow cytometric analysis ( Rvb = 90.09 %); type: functional; settings: read-out: Activity
[13] = test system: Cell membrane; assay: Induction of mitochondrial membrane potential loss in human BGC-823 cells assessed as increase in number of cells with J-monomers by measuring green fluorescence at 0.25 uM incubated for 24 hrs by JC-1 staining based flow cytometric analysis (reference value: 0.33%); type: cell membranes
[14] = Cmax in rat at 10 mg/kg, iv measured after 24 hrs by LC-MS/MS analysis; type: ADME, organism-based; settings: in vivo
[15] = test system: BGC-823; assay: Induction of ROS generation in human BGC-823 cells assessed as cells with green fluorescence at 0.25 uM incubated for 24 hrs by DCFH-DA staining based analysis relative to control; type: functional
[16] = GSH reactivity in human BGC-823 cells assessed as GSSG/GSH ratio at 0.4 uM incubated for 24 hrs by microplate reader analysis (reference value: 0.34); type: ADME, cell-based; settings: bgc-823, 24 h
[17] = test system: Cell membrane; assay: Induction of mitochondrial membrane potential loss in human BGC-823 cells assessed as decrease in number of cells with J-aggregates by measuring red fluorescence at 0.25 uM incubated for 24 hrs by JC-1 staining based flow cytometric analysis (reference value: 99.7 %); type: cell membranes; design: scale not given: the % may be the effect or the level left
[18] = test system: BGC-823; assay: Induction of apoptosis in human BGC-823 cells assessed as late apoptotic cells at 1 uM incubated for 48 hrs by Annexin V-FITC/PI staining based flow cytometric analysis ( Rvb = 5.61 %); type: functional
[19] = AUC (0 to t) in rat at 10 mg/kg, iv measured after 24 hrs by LC-MS/MS analysis; type: ADME, organism-based; settings: in vivo
[20] = test system: BGC-823; assay: Induction of ROS generation in human BGC-823 cells assessed as cells with green fluorescence at 1 uM incubated for 24 hrs by DCFH-DA staining based analysis relative to control; type: functional
[21] = test system: BGC-823; assay: Induction of apoptosis in human BGC-823 cells assessed as late apoptotic cells at 0.25 uM incubated for 48 hrs by Annexin V-FITC/PI staining based flow cytometric analysis ( Rvb = 5.61 %); type: functional
[22] = test system: BGC-823; assay: Induction of ROS generation in human BGC-823 cells assessed as cells with green fluorescence at 0.5 uM incubated for 24 hrs by DCFH-DA staining based analysis relative to control; type: functional
[23] = Clearance in rat at 10 mg/kg, iv measured after 24 hrs by LC-MS/MS analysis; type: ADME, organism-based; settings: in vivo
[24] = test system: Cell membrane; assay: Induction of mitochondrial membrane potential loss in human BGC-823 cells assessed as increase in number of cells with J-monomers by measuring green fluorescence at 1 uM incubated for 24 hrs by JC-1 staining based flow cytometric analysis (reference value: 0.33%); type: cell membranes
[25] = AUC (0 to t) in rat at 10 mg/kg, ip measured after 24 hrs by LC-MS/MS analysis; type: ADME, organism-based; settings: in vivo
[26] = test system: BGC-823; assay: Induction of apoptosis in human BGC-823 cells assessed as late apoptotic cells at 0.5 uM incubated for 48 hrs by Annexin V-FITC/PI staining based flow cytometric analysis ( Rvb = 5.61 %); type: functional
[27] = AUC (0 to infinity) in rat at 10 mg/kg, ip measured after 24 hrs by LC-MS/MS analysis; type: ADME, organism-based; settings: in vivo
[28] = test system: BGC-823; assay: Cell cycle arrest in human BGC-823 cells assessed as accumulation of cells at G2/M phase incubated for 24 hrs by PI staining based flow cytometric analysis; type: functional
[29] = test system: BGC-823; assay: Induction of apoptosis in human BGC-823 cells assessed as viable cells at 1 uM incubated for 48 hrs by Annexin V-FITC/PI staining based flow cytometric analysis ( Rvb = 90.09 %); type: functional; settings: read-out: Activity
[30] = test system: BGC-823; assay: Induction of apoptosis in human BGC-823 cells assessed as necrotic cells at 0.25 uM incubated for 48 hrs by Annexin V-FITC/PI staining based flow cytometric analysis ( Rvb = 1.79 %); type: functional
[31] = AUC (0 to infinity) in rat at 10 mg/kg, iv measured after 24 hrs by LC-MS/MS analysis; type: ADME, organism-based; settings: in vivo
[32] = test system: Cell membrane; assay: Induction of mitochondrial membrane potential loss in human BGC-823 cells assessed as decrease in number of cells with J-aggregates by measuring red fluorescence at 1 uM incubated for 24 hrs in presence of NAC by JC-1 staining based flow cytometric analysis (reference value: 99.7 %); type: cell membranes; design: scale not given: the % may be the effect or the level left
[33] = Clearance in rat at 10 mg/kg, ip measured after 24 hrs by LC-MS/MS analysis; type: ADME, organism-based; settings: in vivo
[34] = Binding affinity to DTT in PBS assessed as UV peak appearance at 288 nm at 360 uM by UV-Vis spectra analysis
[35] = test system: BGC-823; assay: Induction of apoptosis in human BGC-823 cells assessed as early apoptotic cells at 1 uM incubated for 48 hrs by Annexin V-FITC/PI staining based flow cytometric analysis ( Rvb = 1.68 %); type: functional
[36] = Half-life in rat at 10 mg/kg, ip measured after 24 hrs by LC-MS/MS analysis; type: ADME, organism-based; settings: in vivo
[37] = Apparent volume of distribution in rat at 10 mg/kg, ip measured after 24 hrs by LC-MS/MS analysis; type: ADME, organism-based; settings: in vivo
[38] = Cmax in rat at 10 mg/kg, ip measured after 24 hrs by LC-MS/MS analysis; type: ADME, organism-based; settings: in vivo
[39] = Apparent volume of distribution in rat at 10 mg/kg, iv measured after 24 hrs by LC-MS/MS analysis; type: ADME, organism-based; settings: in vivo, read-out: Vz

Compound: CC1(C)CC[C@]2(C(=O)OCCCCOC(=O)c3ccc(O)cc3)CC[C@]3(C)[C@H](C(=O)C=C4[C@@]5(C)C=C(C#N)C(=O)C(C)(C)[C@@H]5CC[C@]43C)[C@@H]2C1
- Activity [1]: 5.52%
- Activity [2]: 5.79%
- Activity [3]: 3.14%
- half-life [4]: 5.4 h
- Activity [5]: 84.2%
- viability at 0.25 µM [6]: 90.6%
- Activity [7]: 24.5%
- Activity [8]: 67.2%
- Activity [9]: 3.44%
- Activity [10]: 15.4%
- Activity [11]: 3.01%
- viability at 0.5 µM [12]: 74.7%
- Activity [13]: 2.06%
- Cmax [14]: 19000 ng/mL
- Activity [15]: 23.2%
- Ratio [16]: 1.08
- Activity [17]: 97.8%
- Activity [18]: 30.4%
- AUC(0-t) at 24 h [19]: 20000 ng·h/mL
- Activity [20]: 95.3%
- Activity [21]: 5.9%
- Activity [22]: 61.6%
- clearance [23]: 8.4 mL/min/kg
- Activity [24]: 77.4%
- AUCt [25]: 7310 ng·h/mL
- Activity [26]: 16.1%
- AUC [27]: 1163 ng·h/mL
- Activity [28]: Dose-Dependent Effect
- viability at 1 µM [29]: 50.1%
- Activity [30]: 0.49%
- AUC(0-inf) [31]: 20200 ng·h/mL
- Activity [32]: 96.7%
- CL [33]: 14.4 mL/min/kg
- Activity [34]: Active
- Activity [35]: 14%
- half-life [36]: 16.5 h
- Vz [37]: 20.63 L/kg
- Cmax [38]: 881 ng/mL
- Vd [39]: 3.99 L/kg
